Results taken from patent publication US20080293699A1, “Inhibitors of thapsigargin-induced cell death” (priority 2007, published 2008).
“Also recorded” adds a separate entry of the source.

Key:
Assay type in all cases: cell-based, rat
CSM14.1 cells [1] = test: Primary HTS assay: ATP content (ATPlite) of undifferentiated CSM14.1 cells challenged with thapsigargin; conditions: 100 μM Salubrinal, 15 μM TG, undifferentiated CSM14.1, ATP
In short: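 Undifferentiated CSM14.1 cells, 3,000/well, cultured overnight at 32 °C, then test compounds at ~15 μg/mL final (1% DMSO) added. Thapsigargin ~15 μM final given after 2 h; ATPlite luminescence read after 24 h as survival surrogate, with 100 μM Salubrinal as maximum and DMSO as minimum.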

[2] = test system: differentiated CSM14.1 cells; test: ATP content assay, thapsigargin-treated differentiated CSM14.1 cells; conditions: compound 25 μM with 10 μM thapsigargin, Salubrinal 100 μM
Description: Of the 26 compounds shown in Table 9, 16 were subsequently confirmed to protect differentiated CSM14.1 cells from TG-induced cell death. For these assays, CSM14.1 cells were differentiated by culture in 2% FBS for 7 days at non-permissive temperature of 39° C. […] CSM14.1 cells were plated at 1,500 cells per well in 96-well plates, and cultured overnight at 32° C. (permissive temperature; FIG. 14, left) or at 39° C. (non-permissive temperature, FIG. 14, right) for 7 days. […] ATP content was measured, and data were expressed as a percentage of control cells treated only with 1% DMSO (mean ±SD; n=3). Two percent FBS was used during differentiation, but all assays were performed in 10% FBS.
For PC12, cells were stimulated with 20 ng/ml NGF for five days; for C17.2, cells were stimulated with serum reduction, and 1% N2 incubation for three days; for CSM14.1, cells were cultured at 39° C. for 5-7 days.
CSM14.1 cells were plated at 1,500 cells per well in 96-well plates and cultured at 39° C. (non-permissive temperature) for 7 days. […] ATP content was measured and data were expressed as a percentage of control cells treated with only 1% DMSO.

CSM14.1 cells [3] = test: Tunicamycin-induced cell death of CSM14.1 cells; conditions: 100 μm salubrinal; stated in the description of FIG. 13 (tunicamycin, annexin V flow cytometry)
Description: CSM 14.1 cells were plated at a density of 3×10^3 cells/well in 96-well plates and incubated overnight. Cells were pre-incubated with 25 μM of each compound or 100 μM salubrinal for two hours, followed by […] tunicamycin treatment. 72 hours later, cell death rates were measured by flow cytometry analysis. Annexin V-negative population was considered as survivors. In FIG. 13, the white column represents 0.5% DMSO control showing 24% of survival, and the gray column 100 μM salubrinal. Black columns are data from each compound (25 μM) (compound numbers refer to the compounds in Table 9).
For the experiments shown in FIG. 18, undifferentiated CSM 14.1 cells were plated at 3,000 cells per well in 96-well plates (for the ATP assay) or at 1×10^4 cells per well in 24-well plates (for flow cytometry). The next day, cells were treated with DMSO (0.5%) or hit compounds 25 μM of a compound with 0.5% DMSO final concentration) for two hours, followed by treatment with various cell death-inducing reagents, including 15 μM Thapsigargin (TG) for 24 hrs, 10 μg/mL tunicamycin (TU) for 72 hrs, 2.5 μM staurosporine (STS) for 24 hrs, 50 μM VP16 for 48 hrs, or 30 ng/mL TNF plus 10 μg/mL cyclohexamide (CHX) for 24 hrs. Cellular ATP content was measured for staurosporine samples and TNF/CHX samples, normalizing data relative to cells treated with DMSO alone (the control) and presenting as a percentage of control. For measuring cell death resulting from treatment with tunicamycin and VP16, flow cytometry was used. All assays were performed in triplicate (mean ±SD).

CSM 14.1 cells = test: MTS assay of thapsigargin-induced death of CSM 14.1 cells; conditions: salubrinal two hours before 7.5 mM thapsigargin, 18 hours
Description: CSM 14.1 cells were plated at a density of 3×10^3 cells per well in 96-well plates and incubated overnight. The indicated concentration of salubrinal was pre incubated with cells for two hours, followed by […] thapsigargin treatment. 18 hours later, cell death rates were measured by the MTS assay. For the MTS assay, the CellTiter 960 Aqueous Non-radioactive Cell Proliferation Assay kit (Promega) was used. The reaction-ready solution was made according to the manufacturer's protocol, and each treated well of the 96-well plate was incubated with 20 μl of the reaction-ready solution. The plates were incubated humidified cell incubator at 37° C. with 5% CO2 for two hours, and the absorbance of each well was read by an ELISA plate reader at 490 nm wavelength. To determine the background level of absorbance, the same volume of culture media (DMEM without cells) was incubated with MTS solution. The background value was subtracted from the value of each well. Background values from the control treatment (no TG, no Sal) wells were set as 100% survival, and the experimental wells' values were evaluated as the percentage of the control value.

## O=C(/C=C/c1ccccc1)NC(NC(=S)Nc1cccc2cccnc12)C(Cl)(Cl)Cl (centres unmarked) [Salubrinal, reference compound]
CSM14.1 cells [1]
  Protection against TG-induced cell death by Salubrinal: significantly protected; also recorded: protects
CSM14.1 cells [1]; listed as Sal
  Protection against TG-induced cell death by Salubrinal: protects
[2]
  Protection of differentiated CSM14.1 cells from thapsigargin-induced death: protects
CSM14.1 cells [3]
  Inhibition of tunicamycin-induced cell death: 75%
CSM 14.1 cells
  Inhibition of thapsigargin-induced cell death, MTS assay: less efficiently than our hit compounds
